Values quoted from earlier work as cited in patent US8247391B2, “Gel compositions” (De Montfort University, priority 2001, dated 2012).
Values after ≈ are worked out from the molar mass of the structure shown.

Conditions: room temperature, pH 7.3 buffer (with antioxidants)

Row | Compound | water solubility [µM]
1 | CC1=C(/C=C/C(C)=C/C=C/C(C)=C/C=O)C(C)(C)CCC1 [retinal, retinaldehyde] | 0.11 (≈ 0.0313 µg/mL)
2 | CC1=C(/C=C/C(C)=C/C=C/C(C)=C/C(=O)O)C(C)(C)CCC1 [retinoic acid] | 0.21 (≈ 0.0631 µg/mL)
3 | CC1=C(/C=C/C(C)=C/C=C/C(C)=C/CO)C(C)(C)CCC1 [retinol, Retinol] | 0.06 (≈ 0.0172 µg/mL)
